The values that follow come from ChEMBL document CHEMBL5634151, “Anti-adipogenic action of a novel oxazole derivative through activation of AMPK pathway” (Eur J Med Chem, 2023).

Series [1] deals with Mesocricetus auratus. Put plainly: In vivo activation of AMPK in high-fat diet induced Syrian golden hamster model assessed as increase in AMPK phosphorylation at Th172 residue in eWAT at 50 mg/kg, po administered for 7 days by Western blot analysis. The class given is functional, organism-based. The conditions noted are these: time 7.0 day. (In general: Immunoblotting shows a protein as a band on a membrane.)

Series [2] concerns 3T3-L1. The experiment in a line: Induction of cell cycle arrest in MDI-cocktail differentiated mouse 3T3-L1 pre-adipocyte cells assessed as reduction in CDK2 protein expression at 5 uM measured after 16 to 24 hrs by immunoblotting analysis. The conditions noted are these: time 16-24 hrs. Format: functional, cell-based.
The test system of series [3] is 3T3-L1. Put plainly: Cytotoxicity against mouse 3T3-L1 pre-adipocyte cells assessed as reduction in cell viability upto 50 uM incubated for 48 hrs by MTT assay. The conditions noted are these: 3t3-l1, 48 h. Format: toxicity, cell-based. A general note: Tetrazolium dyes change colour on reduction, which living cells bring about.
In series [4] the test system is 3T3-L1. The experiment in a line: Induction of mitochondrial respiration in MDI-cocktail differentiated mouse 3T3-L1 pre-adipocyte cells assessed as increase in oxygen consumption rate at 5 uM incubated for 72 hrs by Seahorse XFp flux analyzer. Format: functional, cell-based.
Series [5] concerns 3T3-L1. The experiment in a line: Anti-adipogenic activity in MDI-cocktail differentiated mouse 3T3-L1 pre-adipocyte cells assessed as inhibition of adipogenesis at 0.1 uM by Oil Red O staining based microscopic analysis. The class given is functional, cell-based.
Series [6] concerns 3T3-L1. The experiment in a line: Anti-adipogenic activity in MDI-cocktail differentiated mouse 3T3-L1 pre-adipocyte cells assessed as reduction in adipogenic differentiation at 5 uM measured after 3 to 5 days by Oil Red O staining based microscopic analysis. Format: functional, cell-based. The conditions noted are these: time 3-5 day.
The test system of series [7] is 3T3-L1. Put plainly: Anti-adipogenic activity in MDI-cocktail differentiated mouse 3T3-L1 pre-adipocyte cells assessed as reduction in adipogenic differentiation at 5 uM measured after 5 to 7 days by Oil Red O staining based microscopic analysis. Format: functional, cell-based. The conditions noted are these: time 5-7 day.
The test system of series [8] is 3T3-L1. Put plainly: Inhibition of MDI-cocktail induced adipogenic differentiation in mouse 3T3-L1 pre-adipocyte cells assessed as reduction in FABP4 gene expression at 5 uM by qRT-PCR analysis. The class given is functional, cell-based.
The subject of series [9] is 3T3-L1. Put plainly: Anti-adipogenic activity in MDI-cocktail differentiated mouse 3T3-L1 pre-adipocyte cells assessed as reduction in C/EBPalpha protein expression at 5 uM measured for 3 to 7 days by immunoblotting analysis. Format: functional, cell-based. The conditions noted are these: time 3-7 day.
For series [10], the system named is 3T3-L1. The experiment in a line: Anti-adipogenic activity in MDI-cocktail differentiated mouse 3T3-L1 pre-adipocyte cells assessed as reduction in PPARgamma protein expression at 5 uM measured for 3 to 7 days by immunoblotting analysis. The conditions noted are these: time 3-7 day. The class given is functional, cell-based.
The subject of series [11] is 3T3-L1. Put plainly: Inhibition of MDI-cocktail induced AKT phosphorylation at Ser473 residue in mouse 3T3-L1 pre-adipocyte cells at 5 uM by immunoblotting analysis. The class given is cell-based.
Series [12] relates to 3T3-L1. Put plainly: Anti-adipogenic activity in MDI-cocktail differentiated mouse 3T3-L1 pre-adipocyte cells assessed as reduction in adipogenic differentiation at 5 uM measured after 3 to 7 days by Oil Red O staining based microscopic analysis. The class given is functional, cell-based. The settings on record: time 3-7 day.
In series [13] the test system is C3H 10T1/2. The experiment in a line: Inhibition of MDI-cocktail induced adipogenic differentiation in mouse C3H 10T1/2 cells assessed as inhibition of lipid accumulation by Oil Red O staining based microscopic analysis. The class given is functional, cell-based. The settings on record: dose 0.5-20 µM.

Calls of active or inactive are those of the source. No cut-off for these calls is given here.

Regarding `Cc1ccc(-c2cnc(-c3ccc[n+](Cc4cccc(C)c4)c3)o2)cc1.[Br-]`, the outcome in [1], in series [2], in series [4], in series [5], in [6] and in series [7] was Active. Also, the result in series [9], in series [10] and in series [12] was Active. Also, the Activity entry in [3] is listed as “Non-Toxic”. Besides, the inhibition result in series [8], in [11] and in series [13] was “Active” in each case.
